Results from patent publication US8815872B2, “Macrocyclics pyrimidines as aurora kinase inhibitors” (Merck Patent GmbH, priority 2008, dated 2014).

Experiments:
Test in all cases: Other kinases, single-concentration inhibition (Table 3)
AMPK(r) = format: biochemical, rat
Experimental: (§1) The Aurora and other kinase assays described here were performed on two Caliper Life Sciences systems, the LC3000 and the Desktop Profiler. These provide data on enzyme activity via measurement of the relative amounts of phosphorylated or unphosphorylated fluorescently labelled substrate peptide at the end of an enzymatic reaction. These different states of peptide are resolved by applying a potential difference across the sample. The presence of a charged phosphate group on the product (as opposed to the substrate) causes a different peptide mobility between the two peptides. This is visualized by excitation of a fluorescent label on the substrate and product peptides and represented as peaks within the analysis software.
(§2) The Desktop Profiler utilizes the same principal as the LC 3000 for calculating percentage conversion of a substrate to product. Caliper Life Sciences provided proprietary flash frozen pre-made 384 well plates containing selected kinases. Each column in the 384 well plate contained a particular selected kinase. A second plate, the ‘substrate plate’ contained a mix of fluorescently labeled peptide substrate and ATP. These were arranged in columns so that transfer for substrate plate to enzyme plate provided the correct enzyme with the correct substrate/ATP concentration.
(§3) Compounds were added to a thawed enzyme plate in the desired format, in single concentrations. Reactions were initiated by transfer of the ubstrate/ATP mix from the substrate plate. The enzyme plate was incubated for 90 mins at 25 °C. The reaction was stopped by addition of […] of Stop Buffer (100 mM HEPES pH 7.5, 0.015% Brij-35, 10 mM EDTA (Sigma, E7889)).
(§4) Plates were read in a manner identical to that of the LC3000, and the ratio between substrate and product peaks provided the activity of the enzyme in that well. This was best represented by a plate heat map which colors each well by percent inhibition as compared to positive and negative controls (no inhibitors and no ATP respectively).

Met(h) = biological target: T1, Met(h) (Homo sapiens, UniProt P08581); format: biochemical
T1 construct: purchased Caliper Life Sciences
Experimental: as §1, §2, §3, §4

Abl(h) = biological target: T2, Abl(h) (Homo sapiens, UniProt P00519); format: biochemical
T2 construct: purchased Caliper Life Sciences
Experimental: as §1, §2, §3, §4

KDR(h) = biological target: T3, KDR(h) (Homo sapiens, UniProt P35968); format: biochemical
T3 construct: purchased Caliper Life Sciences
Experimental: as §1, §2, §3, §4

NEK2(h) = biological target: T4, NEK2(h) (Homo sapiens, UniProt P51955); format: biochemical
T4 construct: purchased Caliper Life Sciences
T4 sequence (P51955 1-445): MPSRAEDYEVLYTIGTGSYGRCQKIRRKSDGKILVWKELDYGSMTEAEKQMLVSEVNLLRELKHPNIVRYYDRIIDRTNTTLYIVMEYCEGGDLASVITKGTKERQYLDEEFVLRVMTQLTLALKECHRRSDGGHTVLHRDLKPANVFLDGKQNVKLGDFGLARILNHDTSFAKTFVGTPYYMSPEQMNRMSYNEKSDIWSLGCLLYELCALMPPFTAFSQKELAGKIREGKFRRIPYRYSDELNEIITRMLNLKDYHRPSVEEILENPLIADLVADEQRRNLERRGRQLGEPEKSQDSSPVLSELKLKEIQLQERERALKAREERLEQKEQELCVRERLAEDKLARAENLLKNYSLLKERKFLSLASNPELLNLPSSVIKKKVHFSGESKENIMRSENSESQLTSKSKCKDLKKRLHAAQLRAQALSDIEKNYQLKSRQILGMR
Experimental: as §1, §2, §3, §4

Tie2(R849W)(h) = biological target: T5, Tie2(R849W)(h) (Homo sapiens, UniProt Q02763, R849W); format: biochemical
T5 construct: purchased Caliper Life Sciences
Experimental: as §1, §2, §3, §4

FAK(h) = biological target: T6, FAK(h) (Homo sapiens, UniProt Q05397); format: biochemical
T6 construct: purchased Caliper Life Sciences
Experimental: as §1, §2, §3, §4

EGFR(h) = biological target: T7, EGFR(h) (Homo sapiens, UniProt P00533); format: biochemical
T7 construct: purchased Caliper Life Sciences
Experimental: as §1, §2, §3, §4

PDK1(h) = biological target: T8, PDK1(h) (Homo sapiens, UniProt O15530); format: biochemical
T8 construct: purchased Caliper Life Sciences
T8 sequence (O15530 1-556): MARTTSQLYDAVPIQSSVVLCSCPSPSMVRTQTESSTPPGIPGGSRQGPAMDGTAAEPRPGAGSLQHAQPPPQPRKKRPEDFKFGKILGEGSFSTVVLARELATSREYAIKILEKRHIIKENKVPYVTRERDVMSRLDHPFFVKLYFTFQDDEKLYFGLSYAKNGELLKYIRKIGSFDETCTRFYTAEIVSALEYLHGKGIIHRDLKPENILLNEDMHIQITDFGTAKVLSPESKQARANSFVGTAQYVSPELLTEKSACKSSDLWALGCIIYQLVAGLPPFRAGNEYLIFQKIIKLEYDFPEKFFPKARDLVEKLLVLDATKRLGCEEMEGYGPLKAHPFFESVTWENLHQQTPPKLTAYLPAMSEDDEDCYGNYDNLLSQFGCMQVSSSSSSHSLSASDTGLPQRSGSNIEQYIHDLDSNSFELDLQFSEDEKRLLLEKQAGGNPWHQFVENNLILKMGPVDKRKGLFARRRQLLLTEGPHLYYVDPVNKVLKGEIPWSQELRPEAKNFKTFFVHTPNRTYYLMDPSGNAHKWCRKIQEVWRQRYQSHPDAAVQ
Experimental: as §1, §2, §3, §4

ZIPK(h) = biological target: T9, ZIPK(h) (Homo sapiens, UniProt O43293); format: biochemical
T9 construct: purchased Caliper Life Sciences
Experimental: as §1, §2, §3, §4

MSK2(h) = biological target: T10, MSK2(h) (Homo sapiens, UniProt O75676); format: biochemical
T10 construct: purchased Caliper Life Sciences
Experimental: as §1, §2, §3, §4

T7 sequence (P00533 25-1210): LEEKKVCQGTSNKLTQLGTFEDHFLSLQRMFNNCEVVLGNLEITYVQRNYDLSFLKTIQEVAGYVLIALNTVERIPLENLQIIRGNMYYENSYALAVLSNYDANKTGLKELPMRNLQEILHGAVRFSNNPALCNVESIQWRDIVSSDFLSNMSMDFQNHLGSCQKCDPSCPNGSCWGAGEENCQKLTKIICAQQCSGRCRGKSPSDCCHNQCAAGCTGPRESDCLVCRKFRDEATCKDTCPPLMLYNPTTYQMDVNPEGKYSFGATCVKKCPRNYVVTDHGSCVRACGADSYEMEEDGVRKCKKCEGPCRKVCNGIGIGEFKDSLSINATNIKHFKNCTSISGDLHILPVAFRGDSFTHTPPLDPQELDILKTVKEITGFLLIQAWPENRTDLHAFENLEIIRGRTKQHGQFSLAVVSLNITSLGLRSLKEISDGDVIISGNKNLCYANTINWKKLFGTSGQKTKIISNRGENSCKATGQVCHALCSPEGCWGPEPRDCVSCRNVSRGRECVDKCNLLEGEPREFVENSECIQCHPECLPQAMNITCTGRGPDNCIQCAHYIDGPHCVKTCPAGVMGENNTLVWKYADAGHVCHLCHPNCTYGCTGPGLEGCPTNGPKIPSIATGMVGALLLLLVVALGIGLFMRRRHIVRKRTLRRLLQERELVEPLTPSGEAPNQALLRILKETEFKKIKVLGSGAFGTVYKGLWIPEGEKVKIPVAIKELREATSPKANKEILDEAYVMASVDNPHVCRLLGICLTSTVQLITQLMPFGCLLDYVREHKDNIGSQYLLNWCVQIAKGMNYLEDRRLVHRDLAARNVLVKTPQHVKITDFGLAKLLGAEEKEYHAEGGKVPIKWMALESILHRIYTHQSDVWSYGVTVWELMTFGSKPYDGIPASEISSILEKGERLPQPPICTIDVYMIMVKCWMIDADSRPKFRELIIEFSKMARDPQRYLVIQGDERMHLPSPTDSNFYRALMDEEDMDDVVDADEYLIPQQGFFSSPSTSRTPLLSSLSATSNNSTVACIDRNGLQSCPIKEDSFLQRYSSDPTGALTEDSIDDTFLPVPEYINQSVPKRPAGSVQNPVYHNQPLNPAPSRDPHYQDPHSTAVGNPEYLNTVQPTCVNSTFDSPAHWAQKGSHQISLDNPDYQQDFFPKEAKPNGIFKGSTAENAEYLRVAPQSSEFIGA
T9 sequence (O43293 whole entry): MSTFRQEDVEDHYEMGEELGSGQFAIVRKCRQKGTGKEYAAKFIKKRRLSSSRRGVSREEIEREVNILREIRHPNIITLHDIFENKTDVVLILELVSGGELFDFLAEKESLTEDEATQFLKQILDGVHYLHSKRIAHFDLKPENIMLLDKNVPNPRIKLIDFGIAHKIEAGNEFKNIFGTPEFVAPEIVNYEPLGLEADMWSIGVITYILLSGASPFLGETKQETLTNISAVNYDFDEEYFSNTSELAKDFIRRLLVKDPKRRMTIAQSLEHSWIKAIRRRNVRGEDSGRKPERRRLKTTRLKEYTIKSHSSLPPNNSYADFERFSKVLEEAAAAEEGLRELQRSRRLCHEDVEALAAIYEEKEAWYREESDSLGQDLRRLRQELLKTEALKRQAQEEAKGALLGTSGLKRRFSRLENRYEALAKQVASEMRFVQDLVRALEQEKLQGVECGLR
T1 sequence (P08581 25-1390): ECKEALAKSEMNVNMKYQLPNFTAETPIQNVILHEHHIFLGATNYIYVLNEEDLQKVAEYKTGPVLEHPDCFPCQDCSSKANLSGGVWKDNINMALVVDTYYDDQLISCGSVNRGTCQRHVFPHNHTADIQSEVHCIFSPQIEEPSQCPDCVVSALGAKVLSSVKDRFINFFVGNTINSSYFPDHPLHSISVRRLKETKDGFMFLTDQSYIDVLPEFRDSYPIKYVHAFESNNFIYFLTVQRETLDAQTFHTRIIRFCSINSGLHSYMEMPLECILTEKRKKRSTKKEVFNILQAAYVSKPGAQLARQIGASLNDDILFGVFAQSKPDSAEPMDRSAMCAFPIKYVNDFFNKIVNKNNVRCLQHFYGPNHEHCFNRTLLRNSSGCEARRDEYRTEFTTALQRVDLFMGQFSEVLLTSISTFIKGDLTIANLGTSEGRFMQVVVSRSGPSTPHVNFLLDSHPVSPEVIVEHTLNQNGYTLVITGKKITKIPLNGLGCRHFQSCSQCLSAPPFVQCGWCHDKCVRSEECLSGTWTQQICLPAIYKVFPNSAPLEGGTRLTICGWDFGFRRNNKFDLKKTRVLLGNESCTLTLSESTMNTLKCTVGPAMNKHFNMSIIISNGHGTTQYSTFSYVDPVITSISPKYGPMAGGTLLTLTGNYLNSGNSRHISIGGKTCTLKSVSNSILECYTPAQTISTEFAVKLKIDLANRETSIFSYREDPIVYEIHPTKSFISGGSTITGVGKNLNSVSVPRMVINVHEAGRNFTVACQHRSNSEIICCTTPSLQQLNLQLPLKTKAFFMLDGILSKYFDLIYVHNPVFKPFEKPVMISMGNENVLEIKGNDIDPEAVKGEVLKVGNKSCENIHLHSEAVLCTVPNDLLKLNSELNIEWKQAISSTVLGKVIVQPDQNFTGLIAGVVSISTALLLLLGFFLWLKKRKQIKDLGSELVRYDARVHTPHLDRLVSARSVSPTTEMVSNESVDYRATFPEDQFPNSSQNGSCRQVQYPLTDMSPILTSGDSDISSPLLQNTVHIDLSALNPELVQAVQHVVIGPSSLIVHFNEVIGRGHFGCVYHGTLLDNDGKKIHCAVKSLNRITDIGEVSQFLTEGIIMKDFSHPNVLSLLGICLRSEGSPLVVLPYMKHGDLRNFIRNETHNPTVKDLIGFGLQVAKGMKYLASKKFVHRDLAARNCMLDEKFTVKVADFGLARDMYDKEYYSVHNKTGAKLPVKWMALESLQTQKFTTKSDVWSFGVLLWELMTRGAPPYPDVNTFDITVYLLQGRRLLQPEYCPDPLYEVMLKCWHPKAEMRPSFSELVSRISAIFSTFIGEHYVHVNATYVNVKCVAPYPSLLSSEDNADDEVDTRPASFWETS
T5 sequence (Q02763 23-1124 R849W): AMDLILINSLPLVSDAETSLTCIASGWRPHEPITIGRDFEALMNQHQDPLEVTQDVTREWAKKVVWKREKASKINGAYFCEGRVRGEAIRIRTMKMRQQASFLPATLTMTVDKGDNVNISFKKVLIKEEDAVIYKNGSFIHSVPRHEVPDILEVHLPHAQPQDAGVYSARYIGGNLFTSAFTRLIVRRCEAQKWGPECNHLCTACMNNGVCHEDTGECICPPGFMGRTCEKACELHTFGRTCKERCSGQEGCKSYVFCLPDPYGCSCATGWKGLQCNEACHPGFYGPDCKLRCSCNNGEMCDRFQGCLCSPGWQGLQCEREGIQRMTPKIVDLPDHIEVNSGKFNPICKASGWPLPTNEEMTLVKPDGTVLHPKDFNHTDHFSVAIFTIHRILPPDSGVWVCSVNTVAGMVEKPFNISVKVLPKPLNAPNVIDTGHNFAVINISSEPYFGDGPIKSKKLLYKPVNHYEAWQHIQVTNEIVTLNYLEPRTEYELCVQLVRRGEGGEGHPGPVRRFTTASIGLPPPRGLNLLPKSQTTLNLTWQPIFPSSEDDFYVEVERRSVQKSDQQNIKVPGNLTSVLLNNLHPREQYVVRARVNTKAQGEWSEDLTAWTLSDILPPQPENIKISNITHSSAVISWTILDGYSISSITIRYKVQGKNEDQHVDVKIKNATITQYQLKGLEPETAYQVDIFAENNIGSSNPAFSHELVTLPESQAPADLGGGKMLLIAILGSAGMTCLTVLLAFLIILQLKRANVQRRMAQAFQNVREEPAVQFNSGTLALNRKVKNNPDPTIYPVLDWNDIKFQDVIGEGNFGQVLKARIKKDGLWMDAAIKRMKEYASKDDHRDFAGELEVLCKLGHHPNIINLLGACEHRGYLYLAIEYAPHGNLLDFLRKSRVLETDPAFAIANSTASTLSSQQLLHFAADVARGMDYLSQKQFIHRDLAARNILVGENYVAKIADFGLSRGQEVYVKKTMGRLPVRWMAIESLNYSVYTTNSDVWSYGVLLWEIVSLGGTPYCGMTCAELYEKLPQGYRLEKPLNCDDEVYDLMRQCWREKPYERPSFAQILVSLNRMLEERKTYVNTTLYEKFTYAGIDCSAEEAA
T10 sequence (O75676 whole entry): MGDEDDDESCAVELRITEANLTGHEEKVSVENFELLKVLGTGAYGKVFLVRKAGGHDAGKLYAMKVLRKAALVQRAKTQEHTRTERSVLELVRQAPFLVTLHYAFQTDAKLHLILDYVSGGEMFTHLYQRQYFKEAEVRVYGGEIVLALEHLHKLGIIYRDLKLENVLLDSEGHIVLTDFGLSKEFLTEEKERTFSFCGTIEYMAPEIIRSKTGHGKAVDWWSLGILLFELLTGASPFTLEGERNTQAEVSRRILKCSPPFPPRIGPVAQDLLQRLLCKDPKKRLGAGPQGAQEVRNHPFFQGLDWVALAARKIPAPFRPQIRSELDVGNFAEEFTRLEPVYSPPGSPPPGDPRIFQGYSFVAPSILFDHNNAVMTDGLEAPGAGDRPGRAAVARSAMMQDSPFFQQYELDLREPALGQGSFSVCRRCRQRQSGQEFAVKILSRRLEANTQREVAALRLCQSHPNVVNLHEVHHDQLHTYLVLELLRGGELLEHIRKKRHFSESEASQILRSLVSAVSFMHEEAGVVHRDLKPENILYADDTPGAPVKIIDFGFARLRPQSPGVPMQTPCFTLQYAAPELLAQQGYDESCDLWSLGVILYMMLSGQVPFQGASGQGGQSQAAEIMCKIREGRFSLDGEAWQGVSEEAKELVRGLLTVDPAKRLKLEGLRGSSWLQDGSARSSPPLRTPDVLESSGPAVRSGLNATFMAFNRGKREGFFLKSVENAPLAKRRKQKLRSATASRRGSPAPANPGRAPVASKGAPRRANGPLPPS

| SMILES | % inhibition AMPK(r) (AMPK(r); 1 μM) | % inhibition Met(h) (Met(h); 1 μM) | inhibition at 1 µM (Abl(h)) | % inhibition KDR(h) (KDR(h); 1 μM) | % inhibition NEK2(h) (NEK2(h); 1 μM) | % inhibition Tie2(R849W)(h) (Tie2(R849W)(h); 1 μM) | % inhibition FAK(h) (FAK(h); 1 μM) | % inhibition EGFR(h) (EGFR(h); 1 μM) | % inhibition PDK1(h) (PDK1(h); 1 μM) | % inhibition ZIPK(h) (ZIPK(h); 1 μM) | % inhibition MSK2(h) (MSK2(h); 1 μM) | other results |
| --- | --- | --- | --- | --- | --- | --- | --- | --- | --- | --- | --- | --- |
| C=C[C@@H]1C[C@@H]2/C=C/COc3cccc(c3)Nc3ncc(F)c(n3)N[C@H]2[C@H]1C(N)=O (single isomer, unassigned) [Example 3] | 92% | 115% | 105% | 95% | 95% | 93% | 86% | 120% | 102% | 118% | 136% | – |
| CC[C@@H]1C[C@@H]2CCCOc3cccc(c3)Nc3ncc(F)c(n3)N[C@H]2[C@H]1C(N)=O (single isomer, unassigned) [Example 5] | 58% | 114% | 105% | 70% | 110% | 92% | 91% | 63% | 92% | 110% | 56% | – |
| CC[C@@H]1C[C@@H]2/C=C\COc3cccc(c3)Nc3ncc(F)c(n3)N[C@H]2[C@H]1C(N)=O (single isomer, unassigned) [Example 6] | 51% | 122% | 99% | 62% | 107% | 91% | 81% | 67% | 90% | 112% | 60% | – |
| NC(=O)[C@H]1[C@H]2C[C@H]3[C@H]1Nc1nc(ncc1F)Nc1cccc(c1)CSS[C@@H]3C2 [Example 10] | 86% | 41% | 101% | 32% | 49% | 41% | 3% | 53% | 96% | 118% | 3% | – |
| NC(=O)[C@H]1[C@H]2C[C@H]3[C@H]1Nc1nc(ncc1F)Nc1cccc(c1)C(=O)CS[C@@H]3C2 [Example 11] | 97% | 125% | 92% | 101% | 98% | 103% | 77% | 113% | 98% | 84% | 89% | – |
| NC(=O)[C@H]1[C@H]2C[C@H]3[C@H]1Nc1nc(ncc1F)Nc1cccc(c1)OCCS[C@@H]3C2 [Example 20] | 81% | 60% | 79% | 8% | 103% | 14% | 11% | 67% | 80% | 93% | 48% | – |
| O=C(O)[C@H]1[C@H]2C[C@H]3[C@H]1Nc1nc(ncc1F)Nc1cccc(c1)OCCS[C@@H]3C2 [Example 21] | – | – | – | – | – | – | – | – | – | – | – | % inhibition AMPK(r) (AMPK(r); 10 μM): 57%; % inhibition Met(h) (Met(h); 10 μM): 30%; inhibition at 10 µM (Abl(h); 10 μM): 44%; % inhibition KDR(h) (KDR(h); 10 μM): 10%; % inhibition NEK2(h) (NEK2(h); 10 μM): 92%; % inhibition Tie2(R849W)(h) (Tie2(R849W)(h); 10 μM): 35%; % inhibition FAK(h) (FAK(h); 10 μM): 7%; % inhibition EGFR(h) (EGFR(h); 10 μM): 49%; % inhibition PDK1(h) (PDK1(h); 10 μM): 78%; % inhibition ZIPK(h) (ZIPK(h); 10 μM): 86%; % inhibition MSK2(h) (MSK2(h); 10 μM): 75% |
| CN1CCN(c2ccc3cc2OCCS[C@@H]2C[C@@H]4C[C@H]2[C@@H](Nc2nc(ncc2F)N3)[C@H]4C(N)=O)CC1 [Example 22] | 65% | 46% | -4% | 41% | 96% | 57% | 30% | 48% | 112% | 95% | 60% | – |
| CN1CCN(c2ccc3cc2NC(=O)CS[C@@H]2C[C@@H]4C[C@H]2[C@@H](Nc2nc(ncc2F)N3)[C@H]4C(N)=O)CC1 [Example 24] | 68% | 63% | -4% | 8% | 101% | 28% | 30% | −2% | 108% | 109% | 81% | – |
| N#Cc1ccc2cc1NC(=O)CS[C@@H]1C[C@@H]3C[C@H]1[C@@H](Nc1nc(ncc1F)N2)[C@H]3C(N)=O [Example 26] | 79% | 9% | -1% | 8% | 79% | 26% | 35% | 57% | 88% | 106% | 2% | – |
| NC(=O)[C@H]1[C@H]2C[C@H]3[C@H]1Nc1nc(ncc1F)Nc1cccc(c1)NC(=O)CS[C@@H]3C2 [Example 27] | 71% | 69% | 3% | 7% | 113% | 17% | 41% | 34% | 86% | 97% | 65% | – |
